Test results as given in ChEMBL document CHEMBL4052645, “Discovery of potent and efficacious pyrrolopyridazines as dual JAK1/3 inhibitors” (Bioorg Med Chem Lett, 2017).

Columns and labels:
[1] = molecular target: Phosphatidylinositol 4-phosphate 3-kinase C2 domain-containing subunit beta (Homo sapiens) (UniProt O00750); experiment: Inhibition of wild-type human partial length PI3KC2B (M1 to L1634 residues) expressed in mammalian expression system assessed as residual activity at 50 nM by Kinomescan method relative to control
Sequence of Phosphatidylinositol 4-phosphate 3-kinase C2 domain-containing subunit beta (Homo sapiens) (O00750 whole entry, the tested form may be a part): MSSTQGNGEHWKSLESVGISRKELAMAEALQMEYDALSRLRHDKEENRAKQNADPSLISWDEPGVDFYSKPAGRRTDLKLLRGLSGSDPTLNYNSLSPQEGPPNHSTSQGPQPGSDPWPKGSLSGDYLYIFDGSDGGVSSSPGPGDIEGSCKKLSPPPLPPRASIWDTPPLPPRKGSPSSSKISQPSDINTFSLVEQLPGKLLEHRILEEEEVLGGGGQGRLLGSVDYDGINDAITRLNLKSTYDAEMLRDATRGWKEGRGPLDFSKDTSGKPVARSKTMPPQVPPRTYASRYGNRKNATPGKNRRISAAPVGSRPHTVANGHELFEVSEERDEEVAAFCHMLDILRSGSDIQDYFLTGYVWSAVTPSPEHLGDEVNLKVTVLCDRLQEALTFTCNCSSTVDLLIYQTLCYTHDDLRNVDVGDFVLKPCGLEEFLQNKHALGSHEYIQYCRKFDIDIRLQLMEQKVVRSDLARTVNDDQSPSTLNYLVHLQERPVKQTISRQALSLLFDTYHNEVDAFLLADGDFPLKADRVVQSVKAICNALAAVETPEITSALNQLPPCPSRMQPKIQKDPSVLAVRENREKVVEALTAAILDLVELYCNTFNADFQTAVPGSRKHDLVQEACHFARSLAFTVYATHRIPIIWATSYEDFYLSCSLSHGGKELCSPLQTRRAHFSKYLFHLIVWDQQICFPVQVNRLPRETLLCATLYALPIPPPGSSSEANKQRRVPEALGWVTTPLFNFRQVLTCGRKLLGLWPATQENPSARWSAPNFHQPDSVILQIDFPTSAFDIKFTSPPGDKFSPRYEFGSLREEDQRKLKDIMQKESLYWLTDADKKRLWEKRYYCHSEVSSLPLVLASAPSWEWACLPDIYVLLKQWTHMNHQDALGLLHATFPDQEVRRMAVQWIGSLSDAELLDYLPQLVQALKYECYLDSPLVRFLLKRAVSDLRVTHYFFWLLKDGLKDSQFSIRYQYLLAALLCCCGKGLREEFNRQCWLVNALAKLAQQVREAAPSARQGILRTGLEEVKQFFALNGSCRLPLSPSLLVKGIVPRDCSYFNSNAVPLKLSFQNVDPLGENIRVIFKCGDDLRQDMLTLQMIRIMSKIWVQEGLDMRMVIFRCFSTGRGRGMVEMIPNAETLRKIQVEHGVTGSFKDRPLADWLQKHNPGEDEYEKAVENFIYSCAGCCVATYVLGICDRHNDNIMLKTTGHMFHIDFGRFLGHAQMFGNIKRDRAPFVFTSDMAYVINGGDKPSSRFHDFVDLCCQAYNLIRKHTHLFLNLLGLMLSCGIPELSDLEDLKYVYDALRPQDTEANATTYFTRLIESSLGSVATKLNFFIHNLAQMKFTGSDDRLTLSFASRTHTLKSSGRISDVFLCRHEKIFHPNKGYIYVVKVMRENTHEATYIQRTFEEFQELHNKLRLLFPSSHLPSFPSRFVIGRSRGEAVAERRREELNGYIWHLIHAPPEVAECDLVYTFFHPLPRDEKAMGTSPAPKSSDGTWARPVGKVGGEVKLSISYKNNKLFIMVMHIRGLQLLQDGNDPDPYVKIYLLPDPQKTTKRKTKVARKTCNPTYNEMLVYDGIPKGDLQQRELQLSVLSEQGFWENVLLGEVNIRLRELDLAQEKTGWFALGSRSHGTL

[2] = molecular target: SRSF protein kinase 1 (Homo sapiens) (UniProt Q96SB4); experiment: Inhibition of wild-type human full length SRPK1 (M1 to S655 residues) expressed in bacterial expression system assessed as residual activity at 50 nM by Kinomescan method relative to control
[3] = molecular target: Mitogen-activated protein kinase 10 (Homo sapiens) (UniProt P53779); experiment: Inhibition of wild-type human partial length JNK3 (V28 to Q422 residues) expressed in mammalian expression system assessed as residual activity at 50 nM by Kinomescan method relative to control
[4] = molecular target: Protein kinase C delta type (Homo sapiens) (UniProt Q05655); experiment: Inhibition of human PKCD (Q328 to D676 residues) expressed in bacterial expression system assessed as residual activity at 50 nM by KINOMEscan assay relative to control
Sequence of Protein kinase C delta type (Homo sapiens) (Q05655 whole entry, looked up, the tested form may be a part, canonical isoform): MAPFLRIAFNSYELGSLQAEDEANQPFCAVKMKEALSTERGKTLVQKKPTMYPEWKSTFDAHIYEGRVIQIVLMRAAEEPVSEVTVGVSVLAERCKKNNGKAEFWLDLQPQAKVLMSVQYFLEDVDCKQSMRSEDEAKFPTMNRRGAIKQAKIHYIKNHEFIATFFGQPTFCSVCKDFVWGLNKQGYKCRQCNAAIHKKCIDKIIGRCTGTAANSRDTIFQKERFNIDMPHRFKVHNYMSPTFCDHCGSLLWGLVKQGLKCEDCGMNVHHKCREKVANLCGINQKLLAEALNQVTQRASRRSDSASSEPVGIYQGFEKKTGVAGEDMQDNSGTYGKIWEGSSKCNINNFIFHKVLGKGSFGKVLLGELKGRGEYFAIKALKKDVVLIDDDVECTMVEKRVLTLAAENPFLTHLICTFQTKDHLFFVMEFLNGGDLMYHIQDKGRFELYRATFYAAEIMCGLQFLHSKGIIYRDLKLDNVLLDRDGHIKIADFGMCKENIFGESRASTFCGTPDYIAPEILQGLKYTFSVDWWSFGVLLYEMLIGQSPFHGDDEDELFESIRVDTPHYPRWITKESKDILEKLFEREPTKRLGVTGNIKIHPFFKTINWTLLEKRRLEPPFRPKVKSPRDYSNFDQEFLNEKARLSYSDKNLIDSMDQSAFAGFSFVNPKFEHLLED

[5] = test system: Phosphatidylinositol 4,5-bisphosphate 3-kinase catalytic subunit alpha isoform (Homo sapiens), P42336 [Q546K]; experiment: Inhibition of human partial length PIK3CA Q546K mutant (R108 to N1068 residues) expressed in mammalian expression system assessed as residual activity at 50 nM by Kinomescan method relative to control
[6] = molecular target: Citron Rho-interacting kinase (Homo sapiens) (UniProt O14578); experiment: Inhibition of wild-type human partial length CRIK (M68 to E432 residues) expressed in bacterial expression system assessed as residual activity at 50 nM by Kinomescan method relative to control
[7] = molecular target: Serine/threonine-protein kinase RIO3 (Homo sapiens) (UniProt O14730); experiment: Inhibition of full length human RIOK3 (M1 to E519 residues) expressed in bacterial expression system assessed as residual activity at 50 nM by KINOMEscan assay relative to control
[8] = molecular target: Ephrin type-A receptor 8 (Homo sapiens) (UniProt P29322); experiment: Inhibition of wild-type human partial length EPHA8 (Q608 to C920 residues) expressed in bacterial expression system assessed as residual activity at 50 nM by Kinomescan method relative to control
[9] = molecular target: Tyrosine-protein kinase SYK (Homo sapiens) (UniProt P43405); experiment: Inhibition of wild-type human partial length SYK (D354 to N635 residues) expressed in bacterial expression system assessed as residual activity at 50 nM by Kinomescan method relative to control
[10] = molecular target: Serine/threonine-protein kinase LATS1 (Homo sapiens) (UniProt O95835); experiment: Inhibition of wild-type human partial length LATS1 (Q678 to V1130 residues) expressed in bacterial expression system assessed as residual activity at 50 nM by Kinomescan method relative to control
[11] = molecular target: Calcium/calmodulin-dependent protein kinase type 1D (Homo sapiens) (UniProt Q8IU85); experiment: Inhibition of wild-type human partial length CAMK1D (M1 to K299 residues) expressed in bacterial expression system assessed as residual activity at 50 nM by Kinomescan method relative to control
Sequence of Calcium/calmodulin-dependent protein kinase type 1D (Homo sapiens) (Q8IU85 whole entry, looked up, the tested form may be a part): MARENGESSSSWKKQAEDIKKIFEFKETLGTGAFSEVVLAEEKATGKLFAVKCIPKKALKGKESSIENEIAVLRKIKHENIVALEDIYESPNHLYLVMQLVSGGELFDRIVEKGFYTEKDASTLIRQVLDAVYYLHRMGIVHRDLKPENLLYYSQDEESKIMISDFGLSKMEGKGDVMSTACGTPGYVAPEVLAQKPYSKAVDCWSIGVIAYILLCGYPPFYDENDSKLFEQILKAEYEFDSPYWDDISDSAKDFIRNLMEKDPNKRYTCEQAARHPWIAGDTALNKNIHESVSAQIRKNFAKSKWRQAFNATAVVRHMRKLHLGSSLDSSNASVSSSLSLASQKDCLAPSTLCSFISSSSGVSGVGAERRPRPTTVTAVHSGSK

[12] = molecular target: Serine/threonine-protein kinase NLK (Homo sapiens) (UniProt Q9UBE8); experiment: Inhibition of wild-type human full length NLK (M13 to E527 residues) expressed in bacterial expression system assessed as residual activity at 50 nM by Kinomescan method relative to control
[13] = molecular target: Tyrosine-protein kinase HCK (Homo sapiens) (UniProt P08631); experiment: Inhibition of wild-type human full length HCK (M22 to P526 residues) expressed in bacterial expression system assessed as residual activity at 50 nM by Kinomescan method relative to control
[14] = molecular target: Activin receptor type-2B (Homo sapiens) (UniProt Q13705); experiment: Inhibition of wild-type human ACTR2B (H169 to D504 residues) expressed in bacterial expression system assessed as residual activity at 50 nM by Kinomescan method relative to control
[15] = molecular target: Leukocyte tyrosine kinase receptor (Homo sapiens) (UniProt P29376); experiment: Inhibition of wild-type human partial length LTK (P422 to S744 residues) expressed in bacterial expression system assessed as residual activity at 50 nM by Kinomescan method relative to control
[16] = molecular target: Tyrosine-protein kinase Tec (Homo sapiens) (UniProt P42680); experiment: Inhibition of wild-type human partial length TEC (L341 to D620 residues) expressed in bacterial expression system assessed as residual activity at 50 nM by Kinomescan method relative to control
[17] = molecular target: Phosphatidylinositol 4-phosphate 5-kinase type-1 alpha (Homo sapiens) (UniProt Q99755); experiment: Inhibition of human PIP5K1A (M1 to H562 residues) expressed in bacterial expression system assessed as residual activity at 50 nM by KINOMEscan assay relative to control
[18] = molecular target: Cyclin-dependent kinase 3 (Homo sapiens) (UniProt Q00526); experiment: Inhibition of wild-type human full length CDK3 (M1 to H305 residues) expressed in bacterial expression system assessed as residual activity at 50 nM by Kinomescan method relative to control
[19] = molecular target: TGF-beta receptor type-2 (Homo sapiens) (UniProt P37173); experiment: Inhibition of wild-type human partial length TGFBR2 (I218 to K567 residues) expressed in bacterial expression system assessed as residual activity at 50 nM by Kinomescan method relative to control
[20] = molecular target: High affinity nerve growth factor receptor (Homo sapiens) (UniProt P04629); experiment: Inhibition of wild-type human partial length TRKA (G475 to G790 residues) expressed in mammalian expression system assessed as residual activity at 50 nM by Kinomescan method relative to control
JAK3/JAK1 = JAK3/JAK1 (Homo sapiens, UniProt P23458+P52333); experiment: Inhibition of JAK1/JAK3 in human whole blood assessed as reduction in IL-2 induced IFN-gamma production after 18 hrs by ELISA; assay type: protein-complex assay
Sequence of JAK3/JAK1 (P52333 whole entry, the tested form may be a part): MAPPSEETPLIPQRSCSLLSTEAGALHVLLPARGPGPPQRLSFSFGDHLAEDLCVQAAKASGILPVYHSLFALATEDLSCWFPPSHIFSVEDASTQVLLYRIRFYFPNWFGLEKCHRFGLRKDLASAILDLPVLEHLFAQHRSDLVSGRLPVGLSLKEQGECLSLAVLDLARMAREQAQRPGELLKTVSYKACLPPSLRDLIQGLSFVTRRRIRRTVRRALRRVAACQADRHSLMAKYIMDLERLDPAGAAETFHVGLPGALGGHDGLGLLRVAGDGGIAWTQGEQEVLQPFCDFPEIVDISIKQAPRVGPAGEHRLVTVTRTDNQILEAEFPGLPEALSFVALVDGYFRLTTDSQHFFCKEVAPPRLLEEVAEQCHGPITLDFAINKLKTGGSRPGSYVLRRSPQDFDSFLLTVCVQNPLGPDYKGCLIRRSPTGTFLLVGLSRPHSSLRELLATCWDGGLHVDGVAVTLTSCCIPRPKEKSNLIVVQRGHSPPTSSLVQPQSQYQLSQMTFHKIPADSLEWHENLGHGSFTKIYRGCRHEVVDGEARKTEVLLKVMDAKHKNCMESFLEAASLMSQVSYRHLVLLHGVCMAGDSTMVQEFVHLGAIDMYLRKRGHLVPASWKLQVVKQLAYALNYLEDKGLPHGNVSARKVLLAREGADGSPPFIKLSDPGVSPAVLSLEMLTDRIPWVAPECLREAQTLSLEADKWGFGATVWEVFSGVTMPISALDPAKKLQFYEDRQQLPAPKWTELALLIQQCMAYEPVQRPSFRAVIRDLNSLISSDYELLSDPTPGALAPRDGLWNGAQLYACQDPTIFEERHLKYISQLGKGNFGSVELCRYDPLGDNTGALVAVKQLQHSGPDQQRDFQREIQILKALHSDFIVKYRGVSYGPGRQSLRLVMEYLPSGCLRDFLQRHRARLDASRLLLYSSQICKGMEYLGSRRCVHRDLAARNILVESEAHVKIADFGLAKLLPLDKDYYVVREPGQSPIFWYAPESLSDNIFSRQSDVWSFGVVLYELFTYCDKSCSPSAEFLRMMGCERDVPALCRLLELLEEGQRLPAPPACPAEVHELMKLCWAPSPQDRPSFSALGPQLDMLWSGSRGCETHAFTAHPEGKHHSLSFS
Sequence of JAK3/JAK1 (P23458 whole entry, the tested form may be a part): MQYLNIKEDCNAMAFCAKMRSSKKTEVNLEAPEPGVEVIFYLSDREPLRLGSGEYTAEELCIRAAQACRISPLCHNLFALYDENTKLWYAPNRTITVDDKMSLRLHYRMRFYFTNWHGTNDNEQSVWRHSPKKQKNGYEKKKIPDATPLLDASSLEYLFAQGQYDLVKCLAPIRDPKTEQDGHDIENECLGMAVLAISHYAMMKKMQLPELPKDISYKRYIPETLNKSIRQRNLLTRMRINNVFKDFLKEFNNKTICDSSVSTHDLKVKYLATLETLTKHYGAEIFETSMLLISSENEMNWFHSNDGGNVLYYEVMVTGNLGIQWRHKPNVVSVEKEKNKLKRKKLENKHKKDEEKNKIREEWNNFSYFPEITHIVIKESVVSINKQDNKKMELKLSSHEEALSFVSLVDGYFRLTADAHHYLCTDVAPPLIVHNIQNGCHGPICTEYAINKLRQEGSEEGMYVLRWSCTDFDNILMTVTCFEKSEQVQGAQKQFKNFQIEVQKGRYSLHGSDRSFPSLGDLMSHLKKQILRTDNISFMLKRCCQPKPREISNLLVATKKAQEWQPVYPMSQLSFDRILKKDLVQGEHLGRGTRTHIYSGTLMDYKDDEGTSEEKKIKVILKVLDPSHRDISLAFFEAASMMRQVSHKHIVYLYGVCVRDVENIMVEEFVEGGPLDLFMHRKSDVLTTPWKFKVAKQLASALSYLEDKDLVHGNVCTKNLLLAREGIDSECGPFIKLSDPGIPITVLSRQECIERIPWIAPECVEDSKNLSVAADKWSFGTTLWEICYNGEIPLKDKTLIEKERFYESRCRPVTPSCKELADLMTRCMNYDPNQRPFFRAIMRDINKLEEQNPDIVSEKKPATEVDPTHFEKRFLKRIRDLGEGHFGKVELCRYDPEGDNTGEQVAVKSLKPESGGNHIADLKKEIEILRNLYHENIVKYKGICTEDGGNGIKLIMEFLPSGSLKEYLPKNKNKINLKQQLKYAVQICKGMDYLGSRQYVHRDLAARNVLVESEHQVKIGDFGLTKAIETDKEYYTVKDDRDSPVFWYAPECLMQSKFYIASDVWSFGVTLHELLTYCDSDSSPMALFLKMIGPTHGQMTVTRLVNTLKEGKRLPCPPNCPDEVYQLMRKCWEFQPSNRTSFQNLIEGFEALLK

[21] = molecular target: Dual specificity protein kinase CLK3 (Homo sapiens) (UniProt P49761); experiment: Inhibition of wild-type human full length CLK3 (M1 to R490 residues) expressed in bacterial expression system assessed as residual activity at 50 nM by Kinomescan method relative to control
[22] = molecular target: MAP/microtubule affinity-regulating kinase 4 (Homo sapiens) (UniProt Q96L34); experiment: Inhibition of wild-type human partial length MARK4 (K29 to G340 residues) expressed in bacterial expression system assessed as residual activity at 50 nM by Kinomescan method relative to control
[23] = molecular target: Mitogen-activated protein kinase 12 (Homo sapiens) (UniProt P53778); experiment: Inhibition of wild-type human full length p38-gamma (M1 to L367 residues) expressed in mammalian expression system assessed as residual activity at 50 nM by Kinomescan method relative to control
[24] = molecular target: Receptor-interacting serine/threonine-protein kinase 4 (Homo sapiens) (UniProt P57078); experiment: Inhibition of wild-type human partial length ANKRD3 (M1 to V303 residues) expressed in mammalian expression system assessed as residual activity at 50 nM by Kinomescan method relative to control

## COc1ccc(-c2cc3c(N[C@@H]4CC[C@](C)(N)C4(C)C)c(C(N)=O)cnn3c2)cn1
[1]
  Activity: 100%
[2]
  Activity: 62%
[3]
  Activity: 100%
[4]
  Activity: 30%
[5]
  Activity: 100%
[6]
  Activity: 100%
[7]
  Activity: 66%
[8]
  Activity: 100%
[9]
  Activity: 91%
[10]
  Activity: 90%
[11]
  Activity: 100%
[12]
  Activity: 71%
[13]
  Activity: 100%
[14]
  Activity: 100%
[15]
  Activity: 100%
[16]
  Activity: 100%
[17]
  Activity: 17%
[18]
  Activity: 94%
[19]
  Activity: 100%
[20]
  Activity: 100%
JAK3/JAK1
  IC50: 100 nM
[21]
  Activity: 96%
[22]
  Activity: 93%
[23]
  Activity: 100%
[24]
  Activity: 98%

## CC1(C)[C@H](Nc2c(C(N)=O)cnn3cc(-c4ccccc4)cc23)CC[C@]1(C)N
[1]
  Activity: 100%
[2]
  Activity: 80%
[3]
  Activity: 87%
[4]
  Activity: 9.5%
[5]
  Activity: 84%
[6]
  Activity: 100%
[7]
  Activity: 3.7%
[8]
  Activity: 100%
[9]
  Activity: 82%
[10]
  Activity: 91%
[11]
  Activity: 100%
[12]
  Activity: 100%
[13]
  Activity: 100%
[14]
  Activity: 67%
[15]
  Activity: 100%
[16]
  Activity: 99%
[17]
  Activity: 8.8%
[18]
  Activity: 98%
[19]
  Activity: 100%
[20]
  Activity: 83%
JAK3/JAK1
  IC50: 200 nM
[21]
  Activity: 100%
[22]
  Activity: 79%
[23]
  Activity: 100%
[24]
  Activity: 59%
